Test results taken from article PMC12678798, “Discovery of an allosteric binding site for anthraquinones at the human P2X4 receptor” (Nature Communications, 2025).
Changes are numbered by the printed parent chain. Entries after “also recorded” stand apart in the source; their conditions may differ. Like-named read-outs stand apart in the source and are kept apart here.

Key:
[1] = biological target: T1, human wt P2X4 receptor (Homo sapiens, UniProt Q99571); assay: ATP-induced calcium influx assay, human wt P2X4 receptor in 1321N1 astrocytoma cells; format: cell-based
T1 construct: expressed in transfected cells
T1 sequence (Q99571 1-388): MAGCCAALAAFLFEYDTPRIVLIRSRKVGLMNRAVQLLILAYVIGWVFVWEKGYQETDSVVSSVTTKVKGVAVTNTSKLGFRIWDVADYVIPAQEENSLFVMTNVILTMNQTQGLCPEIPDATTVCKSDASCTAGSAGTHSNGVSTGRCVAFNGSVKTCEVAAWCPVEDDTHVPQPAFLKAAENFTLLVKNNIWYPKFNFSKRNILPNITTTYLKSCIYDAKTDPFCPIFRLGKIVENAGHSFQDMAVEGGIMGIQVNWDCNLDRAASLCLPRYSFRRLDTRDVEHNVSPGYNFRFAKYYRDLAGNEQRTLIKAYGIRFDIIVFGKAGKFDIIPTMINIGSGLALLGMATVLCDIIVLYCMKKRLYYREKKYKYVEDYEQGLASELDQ

[2] = biological target: T2, human P2X4-E307T receptor mutant (Homo sapiens, UniProt Q99571, E307T); assay: ATP-induced calcium influx assay, P2X4-E307T mutant in 1321N1 astrocytoma cells; format: cell-based; settings: for Potency increase at P2X4-E307T compared to wt P2X4: ratio of IC50 values, calcium influx
T2 construct: expressed in transfected cells
T2 sequence (Q99571 1-388 E307T): T1 sequence (Q99571 1-388) with E307T

[3] = biological target: T3, human wt P2X2 receptor (Homo sapiens, UniProt Q9UBL9); assay: ATP-induced calcium influx assay, human wt P2X2 receptor in 1321N1 astrocytoma cells; format: cell-based; settings: for IC50: wt hP2X2
T3 construct: expressed in transfected cells
T3 sequence (Q9UBL9 1-471): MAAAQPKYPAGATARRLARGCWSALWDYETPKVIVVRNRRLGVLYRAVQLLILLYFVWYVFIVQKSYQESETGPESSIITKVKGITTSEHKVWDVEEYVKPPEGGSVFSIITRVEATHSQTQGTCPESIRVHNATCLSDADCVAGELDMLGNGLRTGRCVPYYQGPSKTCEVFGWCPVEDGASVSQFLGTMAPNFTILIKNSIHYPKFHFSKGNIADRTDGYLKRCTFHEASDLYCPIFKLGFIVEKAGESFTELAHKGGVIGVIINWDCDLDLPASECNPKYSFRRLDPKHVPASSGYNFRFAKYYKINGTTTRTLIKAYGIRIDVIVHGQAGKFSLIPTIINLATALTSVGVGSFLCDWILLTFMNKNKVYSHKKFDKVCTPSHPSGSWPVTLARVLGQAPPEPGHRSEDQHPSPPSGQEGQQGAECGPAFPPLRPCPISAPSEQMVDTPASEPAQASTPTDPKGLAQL

[4] = Physicochemical properties (water solubility, lipophilicity); settings: as stated in words
[5] = biological target: T4, chimeric P2X4(P2X2) receptor c6^N208-S216 (Homo sapiens, UniProt Q99571, I209R/N208D/S216R/T211D/T212G); settings: ATP at EC80
T4 sequence (Q99571 1-388 N208D/I209R/T211D/T212G/S216R): T1 sequence (Q99571 1-388) with N208D, I209R, T211D, T212G, S216R

[6] = biological target: T5, P2X4-Q308T receptor mutant (Homo sapiens, UniProt Q99571, Q308T); settings: calcium influx
T5 sequence (Q99571 1-388 Q308T): T1 sequence (Q99571 1-388) with Q308T

[7] = biological target: T6, hP2X4-E307T receptor mutant (Homo sapiens, UniProt Q99571, E307T); assay: Two-electrode voltage clamp (TEVC), P2X4-E307T in Xenopus laevis oocytes; format: cell-based; settings: for Inhibition of ATP-induced current: E307T, 10 µM ATP, 2 min preincubation, PSB-0704 3 µM, PSB-0739 300 nM and 1 µM; for IC50: read-out: pIC50 (inhibition of ATP-induced current) (converted)
T6 construct: host or cells: Xenopus laevis oocytes injected with cRNA (pNKS2 vector)
T6 sequence (Q99571 1-388 E307T): T1 sequence (Q99571 1-388) with E307T

[8] = biological target: T7, P2X4 receptor mutant E307Q (Homo sapiens, UniProt Q99571, E307Q); assay: TEVC, P2X4-E307Q mutant in Xenopus laevis oocytes; format: cell-based; settings: 10 µM ATP, 2 min preincubation, PSB-0704 3 µM, PSB-0739 300 nM and 1 µM
T7 construct: host or cells: Xenopus laevis oocytes injected with cRNA (pNKS2 vector)
T7 sequence (Q99571 whole entry E307Q): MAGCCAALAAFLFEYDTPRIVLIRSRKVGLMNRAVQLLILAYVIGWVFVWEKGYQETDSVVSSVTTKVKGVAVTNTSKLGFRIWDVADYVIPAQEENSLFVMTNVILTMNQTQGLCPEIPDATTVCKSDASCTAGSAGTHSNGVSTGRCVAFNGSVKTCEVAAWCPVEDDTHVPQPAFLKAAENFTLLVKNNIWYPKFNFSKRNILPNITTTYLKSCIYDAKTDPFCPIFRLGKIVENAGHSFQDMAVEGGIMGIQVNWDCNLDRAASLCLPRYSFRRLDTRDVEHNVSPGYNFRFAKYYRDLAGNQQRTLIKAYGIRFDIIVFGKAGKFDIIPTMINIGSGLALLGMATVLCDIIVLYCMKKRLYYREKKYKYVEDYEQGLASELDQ
Protocol: (§1) Xenopus laevis frogs were from Nasco International (Fort Atkinson, WI, USA) and kept at the Core Facility Animal Models (CAM) of the BMC of LMU Munich, Germany (Az: 4.3.2–5682/LMU/BMC/CAM) in accordance with the EU Animal Welfare Act. […] Fifty nanoliters of cRNA (0.5 µg/µL) were injected using a Nanoject II injector (Science Products, Drummond, USA) and oocytes were kept in ND96 (96 mM NaCl, 2 mM KCl, 1 mM MgCl2, 1 mM CaCl2, 5 mM HEPES, pH 7.4–7.5) supplemented with 5 μg/mL gentamicin at 16 °C.
(§2) cDNA encoding human P2X4 receptor (NM_002560.3) was obtained from BioCat GmbH (Heidelberg, Germany) and cloned into the pNKS2 vector[87] using Gibson Assembly (E2621L, New England Biolabs, USA) according to the manufacturer’s instructions. Point mutations were introduced by site-directed mutagenesis using KLD Enzyme Mix (M0554S, New England Biolabs, USA). All constructs were verified by full-length cDNA sequencing (Eurofins Genomics, Germany). Plasmids were linearized with NotI-HF (R3189S, New England Biolabs, USA) and purified using the MinElute Reaction Cleanup Kit (Qiagen, Hilden, Germany). […]
(§3) Statistical analysis was performed with GraphPad Prism version 10 software, and data are presented as means ± SEM. Data were assessed for normality using the Shapiro–Wilk test and for homogeneity of variances using Levene’s test. […]

[9] = biological target: T8, P2X4 receptor mutant E307T_R82A (Homo sapiens, UniProt Q99571, E307T/R82A); assay: TEVC, double mutant E307T_R82A in Xenopus laevis oocytes; format: cell-based; settings: 10 µM ATP, 2 min preincubation
T8 construct: host or cells: Xenopus laevis oocytes injected with cRNA (pNKS2 vector)
T8 sequence (Q99571 whole entry R82A/E307T): as the sequence (Q99571 whole entry E307Q) above, with R82A, Q307T counted along it
Protocol: as §1, §2, §3

[10] = biological target: T9, P2X4 receptor mutant E307T_K298A (Homo sapiens, UniProt Q99571, E307T/K298A); assay: TEVC, double mutant E307T_K298A in Xenopus laevis oocytes; format: cell-based; settings: 10 µM ATP, 2 min preincubation
T9 construct: host or cells: Xenopus laevis oocytes injected with cRNA (pNKS2 vector)
T9 sequence (Q99571 whole entry K298A/E307T): as the sequence (Q99571 whole entry E307Q) above, with K298A, Q307T counted along it
Protocol: as §1, §2, §3

[11] = biological target: T10, P2X4 receptor mutant E307T_R301A (Homo sapiens, UniProt Q99571, E307T/R301A); assay: TEVC, double mutant E307T_R301A in Xenopus laevis oocytes; format: cell-based; settings: 10 µM ATP, 2 min preincubation
T10 construct: host or cells: Xenopus laevis oocytes injected with cRNA (pNKS2 vector)
T10 sequence (Q99571 whole entry R301A/E307T): as the sequence (Q99571 whole entry E307Q) above, with R301A, Q307T counted along it
Protocol: as §1, §2, §3

[12] = biological target: T11, P2X4 receptor mutant E307T_R301K (Homo sapiens, UniProt Q99571, E307T/R301K); assay: TEVC, double mutant E307T_R301K in Xenopus laevis oocytes; format: cell-based; settings: 10 µM ATP, 2 min preincubation
T11 construct: host or cells: Xenopus laevis oocytes injected with cRNA (pNKS2 vector)
T11 sequence (Q99571 whole entry R301K/E307T): as the sequence (Q99571 whole entry E307Q) above, with R301K, Q307T counted along it
Protocol: as §1, §2, §3

[13] = biological target: T12, chimeric P2X4(P2X2) receptor c10^R301-Q308 (Homo sapiens, UniProt Q99571, A304N/D302K/DEL301-301/E307T/L303I/N306T/Q308T); assay: ATP-induced calcium influx assay, chimeric receptor c10 in 1321N1 astrocytoma cells; format: cell-based
T12 construct: expressed in transfected cells; gene synthesis (Geneart), pLVX-IRES-mCherry (bicistronic, mCherry not fused)
T12 sequence (Q99571 with tags, fused parts or gaps DEL301-301/D302K/L303I/A304N/N306T/E307T/Q308T): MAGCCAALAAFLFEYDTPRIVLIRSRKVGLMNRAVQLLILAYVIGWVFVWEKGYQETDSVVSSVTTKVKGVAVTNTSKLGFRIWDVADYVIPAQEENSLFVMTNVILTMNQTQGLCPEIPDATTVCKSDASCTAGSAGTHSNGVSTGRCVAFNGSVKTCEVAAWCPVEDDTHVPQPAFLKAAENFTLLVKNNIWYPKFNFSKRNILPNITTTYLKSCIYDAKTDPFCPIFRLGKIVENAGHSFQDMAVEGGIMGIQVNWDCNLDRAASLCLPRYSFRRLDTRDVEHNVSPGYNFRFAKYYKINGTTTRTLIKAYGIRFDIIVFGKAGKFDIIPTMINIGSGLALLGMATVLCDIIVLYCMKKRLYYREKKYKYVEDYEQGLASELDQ

Row | Structure (SMILES) | Enhancement of the ATP effect at low concentrations ([1]; wt P2X4, ATP at EC80) | Kind of modulation (shape of concentration-response curve) ([1]; wt P2X4, ATP at EC80) | Potency increase at P2X4-E307T compared to wt P2X4 [2] | Kind of modulation at an EC20 of ATP ([3]; P2X2, ATP […] (EC20)) | IC50 ([3]; ATP at EC80, read-out: IC50) | IC50 ([3]; read-out: pIC50 ± SEM (n value) (converted)) | Water solubility [4] | Kind of modulation (shape of concentration-response curve) [5] | Potency at P2X4-Q308T compared to wt P2X4 [6] | IC50 [1] | IC50 [2] | Inhibition of ATP-induced current [7] | IC50 [7] | Inhibition of ATP-induced current [8] | Effect of mutation on antagonist potency (vs E307T) [9] | Effect of mutation on antagonist potency (vs E307T) [10] | Effect of mutation on antagonist potency (vs E307T) [11] | Effect of mutation on antagonist potency (vs E307T) [12] | IC50 [13]
1 | Nc1c(S(=O)(=O)O)cc(Nc2ccc(Nc3nc(Cl)nc(Nc4ccccc4S(=O)(=O)O)n3)c(S(=O)(=O)O)c2)c2c1C(=O)c1ccccc1C2=O [Cibacron Blue] | up to 141% | biphasic modulation | 680 fold | no clear activating effect | 13.1 µM | 12.6 µM | water-soluble | biphasic modulation | similar | – | – | – | – | – | – | – | – | – | –
2 | Nc1c(C(=O)O)cc(Nc2ccc(Nc3ccccc3)c(C(=O)O)c2)c2c1C(=O)c1ccccc1C2=O [PSB-0704] | – | – | > 170 fold | – | – | – | water-soluble | – | – | 12.5 ± 1.9 µM | 0.0724 ± 0.0102 µM | strong inhibition | 1.62 µM | strong inhibition | reduction in inhibitory potency | reduction in inhibitory potency | reduction in inhibitory potency | similarly potent; also recorded: no consequences | –
3 | Nc1c(S(=O)(=O)O)cc(Nc2ccc(Nc3ccccc3)c(S(=O)(=O)O)c2)c2c1C(=O)c1ccccc1C2=O [PSB-0739] | – | – | – | – | – | – | – | – | – | 8.91 ± 0.67 µM | 0.0353 ± 0.0047 µM | strong inhibition | 0.324 µM | strong inhibition | reduction in inhibitory potency | reduction in inhibitory potency | reduction in inhibitory potency | similarly potent; also recorded: no consequences | 0.00341 ± 0.00049 µM
